Test results published in patent US10815297B2, “Antagonists of IL17C for the treatment of inflammatory disorders” (MorphoSys AG, priority 2011, dated 2020).
Each block holds one molecule with its values, some of them ahead of it.

Tests used:
[1] = test system: TS-exposed mice (C57BL/6J), pulmonary inflammation; assay: Tobacco smoke model, cells recovered in bronchoalveolar lavage; assay type: in vivo, mouse
Procedure: The response consisted of significant increases in the numbers of macrophages, epithelial cells, neutrophils and lymphocytes recovered in BAL.
Vehicle (PBS), MOR12743 and MOR03207 were administered i.p., 1 h prior to TS-exposure on days 1, 4, 7 and 10 of the study. Roflumilast was administered p.o., 1 h prior to each TS-exposure.
In this exposure protocol, mice were exposed in groups of 5 in clear polycarbonate chambers (27 cm×16 cm×12 cm). The TS from ‘Marlboro 100’ cigarettes was allowed to enter the exposure chambers at a flow rate of 100 mL/min. In order to minimise any potential problems caused by repeated exposure to a high level of TS, the exposure period to TS was increased initially from 25 minutes at the start of the study (day 1) to a maximum of 45 minutes on day 3. The exposure schedule used in this study was as follows:
The trachea was cannulated using a 10 mm long Luer fitting stainless steel cannula. Phosphate buffered saline (PBS) was used as the lavage fluid. A volume of 0.4 mL was gently instilled and withdrawn 3 times using a 1 mL syringe and then placed in an Eppendorf tube and kept on ice prior to subsequent determinations.
Lavage fluid was separated from cells by centrifugation (6 min at 3400 rpm, RCF=3070×g—‘Eppendorf Mini Spin’) and the supernatant decanted and frozen for possible subsequent analysis. The cell pellet was re-suspended in a known volume of PBS and total cell numbers calculated by counting a stained (Turks stain) aliquot under a microscope using a haemocytometer.
The residual cell pellet was diluted to approximately 10^5 cells per mL. A volume of 500 μl was placed in the funnel of a cytospin slide and centrifuged for 8 min at 800 rpm, RCF=72.26×g (Shandon Cytospin 3). The slide was air-dried and stained using Wrights/Giemsa stain as per the proprietary instructions. When dried and cover-slipped, differential cell-counts were performed using light microscopy. Approximately 400 cells were counted for each slide. Cells were identified using standard morphometric techniques.
In this study, 4 groups of mice were subjected to daily TS-exposure for 11 days and were sacrificed on the 12th day, 24 h after the final TS-exposure. Three groups received either vehicle (D-PBS), MOR12743 or MOR03207, i.p., 1 h prior to TS-exposure on days 1, 4, 7 and 10 of the study. One group received Roflumilast, p.o., 1 h prior to each TS-exposure. A further group was exposed to air for 11 consecutive days and sacrificed on the 12th day, 24 h after the final air-exposure. This group received vehicle (D-PBS), i.p., 1 h prior to exposure on days 1, 4, 7 and 10 of the study. For all groups n=10.
All mice were killed on day 12, by intra-peritoneal barbiturate anaesthetic overdose, 24 h after final exposure to air or TS. A blood sample was taken over heparin from the sub-clavian vein and the plasma separated by centrifugation and stored at −40° C. A BAL was performed using 0.4 mL of phosphate buffered saline (PBS). Cells recovered from the BAL were used for the total cell and differential cell counts. The BAL supernatants and remaining cell pellet were stored at −40° C. and −80° C. respectively for possible future analysis. Following BAL, the cannula was left tied in place. The heart and lungs were removed after gently opening the thorax and cutting down either side of the sternum and ribs. The left lobe was tied off, removed, snap-frozen and stored at −80° C. The right lobe was inflated with 10% phosphate buffered formalin (PBF) to a pressure of 18 cm of PBF for 20 minutes. The trachea was then ligated below the cannula and the cannula removed. The heart, lung & trachea were immersed in PBF.
The data were therefore initially subjected to a one-way analysis of variance test (ANOVA), followed by a Bonferroni correction for multiple comparisons in order to test for statistically significant differences between treatment groups. A “p” value of <0.05 was considered to be statistically significant. […]

[2] = test system: mouse CIA model (DBA1/J mice); assay: Mouse collagen induced arthritis (CIA) model, therapeutic protocol; assay type: in vivo; details: 10 mg/kg, 3x week, i.p., day 31 to day 46
Procedure: DBA1/J mice (male, 6-7 weeks old, approx 20 gram) were obtained from Centre d'Elevage Regional Janvier (Laval, France). Mice were kept on a 12 hr light/dark cycle (0700-1900). Temperature was maintained at 22° C., and food and water were provided ad libitum.
One day before the experiment, CII solution (2 mg/mL) was prepared with 0.05 M acetic acid and stored at 4° C. Just before the immunization, equal volumes of adjuvant […] and CII were mixed by a homogenizer in a pre-cooled glass bottle in an ice water bath. Extra adjuvant and prolonged homogenization may be required if an emulsion is not formed. 0.1 mL of the emulsion was injected intradermally at the base of the tail of each mouse on day 1, a second booster intradermal injection (CII solution at 2 mg/mL in […] 0.1 mLemulsion) was performed on day 21. This immunization method was modified from published methods (Brand et al, 2007, Collagen-induced arthritis. Nature Protocols; vol 2 (5): 1269-1275; Lin et al., 2007, Anti-rheumatic activities of histone deacetylase (HDAC) inhibitors in vivo in collagen-induced arthritis in rodents. Br J Pharmacol. April; 150 (7):829-31).
The therapeutic effects of the antibodies were tested in the mouse CIA model. Mice were randomly divided into equal groups and each group contained 10 mice. All mice were immunized on day 1 and boosted on day 21. Therapeutic dosing lasted from day 31 to day 46. The negative control group was treated with vehicle (PBS) and the positive control group with Enbrel (10 mg/kg, 3× week, i.p.). An antibody of interest was tested at 10 mg/kg, i.p. 3 times per week.
Anti-IL17C antibodies were administered i.p. three times a week at 10 mg/kg. […]
Arthritis was scored according to the method of Khachigian 2006 (Collagen antibody-induced arthritis. (2006) Nature Protocols 1, 2512-6), Lin et al 2007 (supra); Nishida et al. 2004 (Histone deacetylase inhibitor suppression of autoantibody-mediated arthritis in mice via regulation of p16INK4a and p21(WAF1/Cip1) expression. Arthritis Rheum. 10: 3365-76); and Brand et al. 2007 (supra). […]

[3] = target: T1, mouse IL17C (Mus musculus, UniProt Q8K4C5); assay: ELISA titration on mouse IL17C (EC50 determination); assay type: binding
T1 construct: purchased R&D Systems 2306-ML/CF
T1 sequence (Q8K4C5 17-194): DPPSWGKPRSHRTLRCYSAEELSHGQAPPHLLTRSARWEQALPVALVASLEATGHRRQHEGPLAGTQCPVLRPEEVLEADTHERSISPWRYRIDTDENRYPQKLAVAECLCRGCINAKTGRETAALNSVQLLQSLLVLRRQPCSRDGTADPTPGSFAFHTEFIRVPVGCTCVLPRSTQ
Procedure: All purified chimeric human-mouse chimeric IgG2a antibodies were titrated on mouse IL17C for EC50 determination in ELISA starting with a concentration of 100 nM. EC50 values on mouse IL17C were determined in 1 to 3 independent experiments.

Molecule: O=C(Nc1c(Cl)cncc1Cl)c1ccc(OC(F)F)c(OCC2CC2)c1 [Roflumilast, reference compound]
Inhibition of epithelial cells in BAL ([1]; 5 mg/kg p.o. q.d.): 50% | Inhibition of lymphocytes in BAL ([1]; 5 mg/kg p.o. q.d.): 54% | Inhibition of macrophages in BAL ([1]; 5 mg/kg p.o. q.d.): 13% | Inhibition of neutrophils in BAL ([1]; 5 mg/kg p.o. q.d.): 56% | Inhibition of total cells in BAL ([1]; 5 mg/kg p.o. q.d., 1 h prior to each TS-exposure): 32% | inhibition of total cell numbers recovered in the BAL (in words) ([1]; 5 mg/kg p.o., 1 h prior to each TS-exposure): significantly inhibited

Molecule: etanercept [Enbrel, reference compound]
inhibition of inflammation / disease progression (clinical score) [2]: did inhibit

B1: MOR12756: anti-mouse IL17C HuCAL antibody; CDRs SEQ ID NO: 111-116, VL 117, VH 118 (antibody, V domains shown)
VH: QVQLQQSGPGLVKPSQTLSLTCAISGDSVSDNSVAWNWIRQSPSRGLEWLGRIYYRSKWYNDYAVSVKSRITINPDTSKNQFSLQLNSVTPEDTAVYYCAREVLLFPARSYGTGMDVWGQGTLVTVSS
VL: DIELTQPPSVSVSPGQTASITCSGDNLPSKYVHWYQQKPGQAPVLVIYDDNERPSGIPERFSGSNSGNTATLTISGTQAEDEADYYCGVADMPRQMKVFGGGTKLTVLGQ
modifications: VH; VL
binding activity with purified IgG2a [3]: could not be confirmed

B2: MOR12755: anti-mouse IL17C HuCAL antibody; CDRs SEQ ID NO: 101-106, VL 107, VH 108 (antibody, V domains shown)
VH: QVQLQQSGPGLVKPSQTLSLTCAISGDSVSSNSAAWNWIRQSPSRGLEWLGKTYYRSTWSNDYAESVKSRITINPDTSKNQFSLQLNSVTPEDTAVYYCAREMDSLTRSASSIAFDYWGQGTLVTVSS
VL: DIELTQPPSVSVSPGQTASITCSGDNLREHYVHWYQQKPGQAPVLVIYDDTERPSGIPERFSGSNSGNTATLTISGTQAEDEADYYCATRDWSNVVFGGGTKLTVLGQ
modifications: VH; VL
binding activity with purified IgG2a [3]: could not be confirmed

Next, values leading:

binding activity with purified IgG2a [3]: could not be confirmed
B3: MOR12758: anti-mouse IL17C HuCAL antibody; CDRs SEQ ID NO: 131-136, VL 137, VH 138 (antibody, V domains shown)
VH: EVQLVQSGAEVKKPGESLKISCKGSGYSFTDYWISWVRQMPGKGLEWMGAIDPTDSYTRYSPSFQGQVTISADKSISTAYLQWSSLKASDTAMYYCARWYTSHPYYEGRYPMDVWGQGTLVTVSS
VL: DIALTQPASVSGSPGQSITISCTGTSSDVGHYNYVSWYQQHPGKAPKLMIYGVTKRPSGVSNRFSGSKSGNTASLTISGLQAEDEADYYCASADEWPTLHVFGGGTKLTVLGQ
modifications: VH; VL

binding activity with purified IgG2a [3]: could not be confirmed
B4: MOR12757: anti-mouse IL17C HuCAL antibody; CDRs SEQ ID NO: 121-126, VL 127, VH 128 (antibody, V domains shown)
VH: EVQLLESGGGLVQPGGSLRLSCAASGFTFSSYAMSWVRQAPGKGLEWVSFISSGGSETFYADSVKGRFTISRDNSKNTLYLQMNSLRAEDTAVYYCARVSYIYYYSWVLFDVWGQGTLVTVSS
VL: DIQMTQSPSSLSASVGDRVTITCRASQGIGTALNWYQQKPGKAPKLLIYDVSSLQSGVPSRFSGSGSGTDFTLTISSLQPEDFATYYCQQGLFLPFTFGQGTKVEIKRT
modifications: VH; VL
